The record followed here is patent US10507233B2, “Universal N-glycan binding reagent” (New England Biolabs, Inc., priority 2014, dated 2019).

In the assay the target is T1, SNAP-Fbs: human Fbs sugar binding domain, wild type, SEQ ID NO: 2, fused to SNAP-tag (fusion SEQ ID NO: 3), on beads (Homo sapiens, UniProt Q9UK22).
T1 construct: SNAP-only beads as control
T1 sequence (Q9UK22 113-296): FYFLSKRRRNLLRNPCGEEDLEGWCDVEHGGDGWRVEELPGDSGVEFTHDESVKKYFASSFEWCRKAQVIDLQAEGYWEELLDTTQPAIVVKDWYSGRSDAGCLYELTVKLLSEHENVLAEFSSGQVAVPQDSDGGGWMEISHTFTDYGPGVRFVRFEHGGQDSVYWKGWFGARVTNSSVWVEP
Description: Binding of 2-AB labeled M3N2 to SNAP-Fbs beads versus SNAP control beads. The conditions noted are these: 50 picomoles, low salt buffer, SNAP-Fbs beads vs SNAP control beads. The protocol:
SNAP-Fbs is efficiently conjugated to BG beads (SNAP Capture Pull-Down resin (New England Biolabs, Ipswich, Mass.): SNAP-Fbs protein is reacted with BG beads at 4° C. overnight in a DTT-containing buffer (4 mM DTT, 20 mM tris-HCl pH 7.5, 1 mM EDTA, 50 mM NaCl). After the conjugation reaction, SNAP-Fbs beads are washed with 40× bead volume of low salt buffer.
When PNGase F is used to trim N-glycans away from the peptides or proteins, the terminal GlcNAc residue becomes available for modification. A common modification is fluorophore labeling using 2-AB dye. The primary amino group of the dye performs a nucleophilic attack on the carbonyl carbon of the acyclic reducing terminal residue to form a partially stable Schiff's base. […] The conserved terminal GlcNAc residue is thus referred to as the “reducing end” of a glycan species. Upon 2-AB labeling, the carbohydrate ring structure is no longer capable of forming. Fifty picomoles of 2-AB labeled M3N2 in low salt buffer were incubated with SNAP-Fbs beads or SNAP control beads (SNAP Capture beads conjugated to SNAP-tag Purified Protein, New England Biolabs, Ipswich, Mass.).

Molecules are shown by their SMILES.

For the compound `CC(=O)N[C@H]1[C@H](O[C@@H]([C@H](O)[C@H](CNc2ccccc2C(N)=O)NC(C)=O)[C@H](O)CO)O[C@H](CO)[C@@H](O[C@@H]2O[C@H](CO[C@H]3O[C@H](CO)[C@@H](O)[C@H](O)[C@@H]3O)[C@@H](O)[C@H](O[C@H]3O[C@H](CO)[C@@H](O)[C@H](O)[C@@H]3O)[C@@H]2O)[C@@H]1O` [2-AB labeled M3N2], the “binding of 2-AB labeled M3N2” value was 2-AB labeling disrupts the interaction between glycan and Fbs and completely abolishes binding.
